Where two headings read alike, the source gives them in different places.
Tests used:
cancer cell line = assay: MTS assay viability IC50, A-459; type: cell-based; conditions: A459; Table 5; read-out: IC50 Liver (A-459)
Method: (§1) Dehydroabietylamine, its N-substituted derivatives and the corresponding dihydroabietylamine and its N-substituted derivatives are tested for their capability to inhibit cell growth of cancer cell lines, including melanoma (UACC 903, 1205Lu), breast (MCF-7), fibrosarcoma (HT-1080), colon (Caco-2), and prostate (PC-3) cancer cell lines. Viability and IC50 of normal human fibroblasts and cell lines from melanoma and other malignancies following treatment with all the agents are measured using the MTS assay (Promega, Madison, Wis.). Human fibroblast FF2441 cells, metastatic melanoma cell lines 1205 Lu and UACC 903 as well as cancer cell lines representing sarcoma (HT-1080), prostate (PC-3, LNCaP), breast (MCF-7) and lung (A-549) are maintained in DMEM (Invitrogen, Carlsbad, Calif.) supplemented with 10% FBS (Hyclone, Logan, Utah) in a 5% CO2 atmosphere, humidified 37° C. incubator. 5×10^3 cells per well in 100 μL of media are plated and grown in a 96-well plate for 48 to 72 h and treated with either DMSO vehicle control or 0.62 to 40 μmol/L for 24, 48 or 72 h. IC50 values for each compound in […] for respective cell lines are measured from three independent experiments using GraphPad Prism version 4.01 (GraphPad Software, La Jolla, Calif.). FIG. 52 is a graph showing IC50 values for leelamine and compounds 4a, 4b and 5a in treated fibroblasts (FF2441) compared to melanoma cells. Selectivity ratio here is defined as ratio of activity against fibroblasts compared to activity against melanoma cells. Leelamine is relatively selective with a ratio of >6 and >4 for UACC903 and 1205Lu melanoma cells. The selectivity ratio of compound 4a is ˜4 and ˜3 for UACC903 and 1205Lu and for compound 4b is ˜4 for both cell lines. The selectivity ratio of compound 5a is ˜4 for UACC903 and >2 for 1205Lu cells.

[1] = system: FF2441 normal human fibroblasts; assay: MTS assay viability IC50, normal fibroblasts; type: cell-based
Method: The efficacy of leelamine to kill other cancer types is measured and the IC50 for cell lines derived from carcinomas of breast, lung, prostate, connective tissue, pancreas and colon determined. The MTS assay as described in Sharma, A. et al., Clin Cancer Res, 2009, 15:1674-85; and Madhunapantula, S. V. et al., Mol Cancer Ther, 2008, 7:1297-308 is used to establish the IC50 at 24, 48 and 72 hours of leelamine treatment for normal human epidermal melanocytes (FOM103), normal skin fibroblast cells (FF2441), normal skin keratinocytes (HFK) and compared to melanocytic lesion cells from the radial-, vertical- and metastatic melanoma stages. 5×10^3 cells per well in 100 μL of media are plated and grown in a 96-well plate for 48 to 72 hours and treated with either DMSO vehicle control or 0.62 to 40 μmol/L of leelamine for 24, 48 or 72 hours. IC50 values for each compound in μmol/L for respective cell lines are measured from three independent experiments using GraphPad Prism version 4.01 (GraphPad Software, La Jolla, Calif.). Leelamine is found to be not toxic to normal cells and effective to kill melanoma cells as well as non-melanoma cancer cells as shown in Table 1 in FIG. 20. Leelamine is 3- to 4-fold more specific at killing metastatic melanoma than normal cells, supporting cancer therapeutic utility at concentrations<2 μmol/L.
5×10^3 cells per well in 100 μL of media are plated and grown in a 96-well plate for 48 to 72 hours and treated with either DMSO vehicle control or 0.62 to 40 μmol/L of leelamine for 24, 48 or 72 hours. IC50 values for each compound in μmol/L for respective cell lines are measured from three independent experiments using GraphPad Prism version 4.01 (GraphPad Software, La Jolla, Calif.). […]
as §1

[2] = Homo sapiens, FF2441, Table 5, read-out: IC50 Fibroblast FF2441

| IC50 (cancer cell line) [µM] | Structure (SMILES) | IC50 ([1]; Homo sapiens, FF2441, Table 4, read-out: IC50 Normal fibroblast FF2441) [µM] | IC50 [1, 2] [µM] | IC50 ([1]; Table 6, read-out: IC50 Normal fibroblast FF2441) [µM] |
| --- | --- | --- | --- | --- |
| > 100 | CC(C)C1=CC2=CCC3[C@](C)(CCC[C@@]3(C)C(=O)O)C2CC1 (stereo partly drawn) [Abietic acid, (1R,4aR)-1,4a-dimethyl-7-(propan-2-yl)-1,2,3,4,4a,4b,5,6,10,10a-decahydrophenanthrene-1-carboxylic acid, reference compound] | > 100 | > 100 | > 100 |
| 19.1 ± 3.87 | CC(C)C1=CC2=CCC3[C@](C)(CN)CCC[C@]3(C)C2CC1 (stereo partly drawn) [Compound 4a, {[(1R,4aR)-1,4a-dimethyl-7-(propan-2-yl)-1,2,3,4,4a,4b,5,6,10,10a-decahydrophenanthren-1-yl]methyl}amine] |  | 8.33 ± 0.43 |  |
| 9.7 ± 1.34 | CC(C)c1ccc2c(c1)CCC1[C@](C)(CNC(=O)C(F)(F)F)CCC[C@]21C (stereo partly drawn) [Compound 5a, N-{[(1R,4aS)-1,4a-dimethyl-7-(propan-2-yl)-1,2,3,4,4a,9,10,10a-octahydrophenanthren-1-yl]methyl}-2,2,2-trifluoroacetamide] |  | 5.17 ± 0.02 |  |
| 9.27 ± 1.43 | CC(C)c1ccc2c(c1)CCC1[C@](C)(CN)CCC[C@]21C (stereo partly drawn) [Leelamine, [(1R,4aS)-1,4a-dimethyl-7-(propan-2-yl)-1,2,3,4,4a,9,10,10a-octahydrophenanthren-1-yl]methanamine] |  | 8.91 ± 0.57 |  |
